Our source for the IC50 values is patent US10329270B2, “Heteroaryl compounds as BTK inhibitors and uses thereof” (Merck Patent GmbH, priority 2013, dated 2019).

The assay addresses T1, full-length human BTK (Homo sapiens, UniProt Q06187).
T1 construct: 2.5× stocks of full-length human BTK (08-080); purchased CarnaBio USA, Inc., Natick, Mass; 08-080
Put plainly: Assay A: BTK IC50 Enzyme Assay (microfluidic off-chip mobility shift kinase assay). Format: biochemical. Particulars: full-length human BTK, kinKDR peptide substrate, incubated 90 min at 27 C; read-out: Assay A (Time Dependent BTK Enzyme Assay IC50). As to the method: Assay A: BTK IC50 Enzyme Assay
The following describes a microfluidic, off-chip mobility shift kinase assay used to measure inherent potency of compounds against BTK enzyme. Compounds described by embodiments of the present invention were assayed using this protocol and the data from the same is recorded in Table 2 within the column labeled: “Time Dependent BTK Enzyme Assay IC50”.
Stopped reactions were monitored at −2 PSI, −3000 V/−700 V in a LabChip 3000 plate reader from Caliper Life Sciences, a PerkinElmer Company (Hopkinton, Mass.), and the activity was measured by off-chip mobility shift assay measuring the charge/mass difference between substrate and product resulting from peptide phosphorilation. IC50 and efficacy were determined by plotting log [Inhibitor] vs. % Activity in GeneData Screener (Basel, Switzerland). […] I<1 uM and II>1 uM.

pIC50: −log10 of the molar value. Structures can show the parent of a compound that is named as a salt.

T1 sequence (Q06187 whole entry): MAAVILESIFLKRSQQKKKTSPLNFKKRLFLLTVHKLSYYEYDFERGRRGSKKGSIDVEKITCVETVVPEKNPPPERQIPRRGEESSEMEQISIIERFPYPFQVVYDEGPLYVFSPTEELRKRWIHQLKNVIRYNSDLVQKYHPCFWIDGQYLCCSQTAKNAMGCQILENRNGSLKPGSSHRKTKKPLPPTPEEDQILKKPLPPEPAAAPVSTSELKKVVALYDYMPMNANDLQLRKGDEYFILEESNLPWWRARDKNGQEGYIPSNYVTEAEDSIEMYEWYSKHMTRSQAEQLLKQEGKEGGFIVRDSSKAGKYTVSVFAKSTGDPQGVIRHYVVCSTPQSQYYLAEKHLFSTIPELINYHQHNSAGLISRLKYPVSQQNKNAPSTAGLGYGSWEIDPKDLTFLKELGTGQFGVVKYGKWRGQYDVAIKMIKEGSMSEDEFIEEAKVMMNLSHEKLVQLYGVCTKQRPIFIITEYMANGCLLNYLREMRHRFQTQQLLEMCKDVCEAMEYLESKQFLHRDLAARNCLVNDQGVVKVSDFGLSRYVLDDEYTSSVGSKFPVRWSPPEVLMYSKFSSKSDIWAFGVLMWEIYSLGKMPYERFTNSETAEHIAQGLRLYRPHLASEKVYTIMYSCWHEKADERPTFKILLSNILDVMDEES

Consider `C=CC(=O)N[C@H]1CCN(c2nc(Oc3ccc(Oc4ccccc4)cc3)c(C(N)=O)cc2F)C1` [Compound 2, 6-((S)-3-Acryloylamino-pyrrolidin-1-yl)-5-fluoro-2-(4-phenoxy-phenoxy)-nicotinamide], for which the pIC50 is 6.00 to 7.00.

On to `C=CC(=O)N[C@H]1CCN(c2nc(Nc3ccc(CCN4CCCC4)cc3)c(F)cc2C(N)=O)C1` [Compound 4, 2-((S)-3-Acryloylamino-pyrrolidin-1-yl)-5-fluoro-6-[4-(2-pyrrolidin-1-yl-ethyl)-phenylamino]-nicotinamide], for which the pIC50 was 6.00 to 7.00.

For the compound `C=CC(=O)N[C@H]1CCN(c2nc(Nc3ccc(C(=O)NC(C)(C)C)cc3)c(C(N)=O)cc2F)C1` [Compound 5, 6-((S)-3-Acryloylamino-pyrrolidin-1-yl)-2-(4-tert-butylcarbamoyl-phenylamino)-5-fluoro-nicotinamide], the pIC50 was 6.00 to 7.00.

With `C=CC(=O)N[C@H]1CCN(c2nc(Nc3ccc(N4C[C@@H](C)O[C@@H](C)C4)nc3)c(C(N)=O)cc2F)C1` [Compound 6, 6-((S)-3-Acryloylamino-pyrrolidin-1-yl)-2-[6-(cis-2,6-dimethyl-morpholin-4-yl)-pyridin-3-ylamino]-5-fluoro-nicotinamide], the pIC50 is 5.30 to 6.00.

Consider `C=CC(=O)N1C[C@@H]2C[C@H]1CN2c1ccc(C(N)=O)c(Nc2ccc(C)nc2)n1` [Compound 8], for which the pIC50 is over 7.00.

With `C=CC(=O)N1CC=C(c2ccc(C(N)=O)c(Nc3ccc(OC4CCN(C)CC4)cc3)n2)CC1` [Compound 13, 1′-Acryloyl-6-[4-(1-methyl-piperidin-4-yloxy)-phenylamino]-1′,2′,3′,6′-tetrahydro-[2,4′]bipyridinyl-5-carboxylic acid amide], the pIC50 was over 7.00.

Consider `C=CC(=O)N1C[C@@H]2C[C@H]1CN2c1ccc(C(N)=O)c(Nc2cccnc2)n1` [Compound 15, 6-((1S,4S)-5-acryloyl-2,5-diazabicyclo[2.2.1]heptan-2-yl)-2-(pyridin-3-ylamino)nicotinamide], for which the pIC50 is over 7.00.

Take `C=CC(=O)N1CCC(c2ccc(C(N)=O)c(Nc3ccc(C(=O)N4CCN(C(=O)CCCCNC(=O)OC(C)(C)C)CC4)cc3)n2)CC1` [Compound 19]: the negative logarithm of the IC50 (pIC50) was over 7.00.

On to `C=CC(=O)N[C@H]1CCN(c2ccc(C(N)=O)c(Nc3ccc(C(=O)N4CCCCC4)cc3)n2)C1` [Compound 21, 6-((S)-3-Acryloylamino-pyrrolidin-1-yl)-2-[4-(piperidine-1-carbonyl)-phenylamino]-nicotinamide], for which the pIC50 is over 7.00.

As for `C=CC(=O)N[C@H]1CCN(c2ccc(C(N)=O)c(Nc3ccc(CCN4CCC(F)(F)C4)cc3)n2)C1` [Compound 24, 6-((S)-3-Acryloylamino-pyrrolidin-1-yl)-2-{4-[2-(3,3-difluoro-pyrrolidin-1-yl)-ethyl]-phenylamino}-nicotinamide], the negative-log IC50 (pIC50) is over 7.00.

Regarding `C=CC(=O)N[C@H]1CCN(c2ccc(C(N)=O)c(Nc3ccc(N4CCC(F)(F)CC4)cc3)n2)C1` [Compound 25, 6-((S)-3-Acryloylamino-pyrrolidin-1-yl)-2-[4-(4,4-difluoro-piperidin-1-yl)-phenylamino]-nicotinamide], the pIC50 is over 7.00.

For the compound `C=CC(=O)N[C@H]1CCN(c2ccc(C(N)=O)c(Nc3ccc(C(=O)N(C)C)cc3)n2)C1` [Compound 26, 6-((S)-3-Acryloylamino-pyrrolidin-1-yl)-2-(4-dimethylcarbamoyl-phenylamino)-nicotinamide], the pIC50 was over 7.00.

Regarding `C=CC(=O)N[C@H]1CCN(c2ccc(C(N)=O)c(Nc3ccc(N4CC(C)OC(C)C4)c(F)c3)n2)C1` (stereo partly drawn) [Compound 27, 6-((S)-3-Acryloylamino-pyrrolidin-1-yl)-2-[4-(2,6-dimethyl-morpholin-4-yl)-3-fluoro-phenylamino]-nicotinamide], the pIC50 is over 7.00.

Consider `C=CC(=O)N1CC=C(c2ccc(C(N)=O)c(Nc3ccc(C(=O)N4CCCCC4)cc3)n2)CC1` [Compound 28, 1′-Acryloyl-6-[4-(piperidine-1-carbonyl)-phenylamino]-1′,2′,3′,6′-tetrahydro-[2,4′]bipyridinyl-5-carboxylic acid amide], for which the pIC50 was over 7.00.

On to `C=CC(=O)N1CCC(c2ccc(C(N)=O)c(Nc3ccc(C(=O)N4CCN(C(=O)CCCCN)CC4)cc3)n2)CC1` [Compound 29, 1′-Acryloyl-6-{4-[4-(5-amino-pentanoyl)-piperazine-1-carbonyl]-phenylamino}-1′,2′,3′,4′,5′,6′-hexahydro-[2,4′]bipyridinyl-5-carboxylic acid amide hydrochloride], for which the pIC50 was over 7.00.

`C=CC(=O)N1CCC(c2ccc(C(N)=O)c(Nc3ccc(N4C[C@@H](C)O[C@@H](C)C4)nc3)n2)CC1` [Compound 32, 1′-Acryloyl-6-[6-((2R,6S)-2,6-dimethyl-morpholin-4-yl)-pyridin-3-ylamino]-1′,2′,3′,4′,5′,6′-hexahydro-[2,4′]bipyridinyl-5-carboxylic acid amide]: the pIC50 is over 7.00.

Turning to `C=CC(=O)N[C@H]1CCN(c2ccc(C(N)=O)c(Nc3ccc(N4CC(C)OC(C)C4)cc3)n2)C1` (stereo partly drawn) [Compound 33, 6-((S)-3-Acryloylamino-pyrrolidin-1-yl)-2-[4-(2,6-dimethyl-morpholin-4-yl)-phenylamino]-nicotinamide], the pIC50 is over 7.00.

With `C=CC(=O)N1CCN(c2ccc(C(N)=O)c(Nc3ccc(C)nc3)n2)CC1` [Compound 34], the pIC50 is over 7.00.

Consider `C=CC(=O)N[C@H]1CCN(c2ccc(C(N)=O)c(Nc3ccc(C(=O)N4CCOCC4)cc3)n2)C1` [Compound 35, 6-((S)-3-Acryloylamino-pyrrolidin-1-yl)-2-[4-(morpholine-4-carbonyl)-phenylamino]-nicotinamide], for which the pIC50 was over 7.00.

On to `C=CC(=O)N[C@H]1CCN(c2ccc(C(N)=O)c(Nc3ccc(Oc4ccnc(C(=O)NC)c4)cc3)n2)C1` [Compound 36, 6-((S)-3-Acryloylamino-pyrrolidin-1-yl)-2-[4-(2-methylcarbamoyl-pyridin-4-yloxy)-phenylamino]-nicotinamide], for which the pIC50 is over 7.00.

As to `C=CC(=O)N[C@H]1CCN(c2ccc(C(N)=O)c(Nc3ccc(N4CCCCC4)nc3)n2)C1` [Compound 39, (S)-6-(3-acrylamidopyrrolidin-1-yl)-2-((6-(piperidin-1-yl)pyridin-3-yl)amino)nicotinamide], the pIC50 is over 7.00.

For `C=CC(=O)N[C@H]1CCN(c2ccc(C(N)=O)c(Nc3ccc(N4CCCC4)nc3)n2)C1` [Compound 41, 6-((S)-3-Acryloylamino-pyrrolidin-1-yl)-2-(6-pyrrolidin-1-yl-pyridin-3-ylamino)-nicotinamide], the pIC50 is over 7.00.

Turning to `C=CC(=O)N1CCCC(c2ccc(C(N)=O)c(Nc3ccc(CCN4CCCC4)cc3)n2)C1` (stereo not shown) [Compound 42, 1′-Acryloyl-6-[4-(2-pyrrolidin-1-yl-ethyl)-phenylamino]-1′,2′,3′,4′,5′,6′-hexahydro-[2,3′]bipyridinyl-5-carboxylic acid amide], the pIC50 was over 7.00.

On to `C=CC(=O)N1CCN(c2ccc(C(N)=O)c(Nc3cccnc3)n2)CC1` [Compound 43], for which the pIC50 is over 7.00.

With `C=CC(=O)N[C@@H]1CCN(c2ccc(C(N)=O)c(Nc3ccc(C(=O)N4CCOCC4)cc3)n2)C1` [Compound 47, 6-((R)-3-Acryloylamino-pyrrolidin-1-yl)-2-[4-(morpholine-4-carbonyl)-phenylamino]-nicotinamide], the pIC50 is over 7.00.

With `C=CC(=O)N[C@H]1CCN(c2ccc(C(N)=O)c(Nc3ccc(F)cc3)n2)C1` [Compound 48, 6-((S)-3-Acryloylamino-pyrrolidin-1-yl)-2-(4-fluoro-phenylamino)-nicotinamide], the pIC50 was over 7.00.

Consider `C=CC(=O)N1CCC(c2ccc(C(N)=O)c(Nc3ccc(C)nc3)n2)CC1` [Compound 49], for which the pIC50 was over 7.00.

For the compound `C=CC(=O)N1CCC(Nc2ccc(C(N)=O)c(Nc3cccc(C)c3)n2)C1` (stereo not shown) [Compound 50, 6-(1-Acryloyl-pyrrolidin-3-ylamino)-2-m-tolylamino-nicotinamide], the pIC50 was over 7.00.

As for `C=CC(=O)N[C@H]1CCN(c2ccc(C(N)=O)c(Nc3cncc(F)c3)n2)C1` [Compound 51, 6-((S)-3-Acryloylamino-pyrrolidin-1-yl)-2-(5-fluoro-pyridin-3-ylamino)-nicotinamide], the pIC50 is over 7.00.

On to `C=CC(=O)N[C@H]1CCN(c2ccc(C(N)=O)c(Nc3cccnc3)n2)C1` [Compound 52, 6-((S)-3-Acryloylamino-pyrrolidin-1-yl)-2-(pyridin-3-ylamino)-nicotinamide], for which the pIC50 is over 7.00.

As for `C=CC(=O)N1CCC(c2ccc(C(N)=O)c(Nc3cccnc3)n2)CC1` [Compound 53, 1′-Acryloyl-6-(pyridin-3-ylamino)-1′,2′,3′,4′,5′,6′-hexahydro-[2,4′]bipyridinyl-5-carboxylic acid amide], the pIC50 was over 7.00.

For `C=CC(=O)N[C@H]1CCN(c2ccc(C(N)=O)c(Nc3ccc(Oc4ccccc4)cc3)n2)C1` [Compound 54, 6-((S)-3-Acryloylamino-pyrrolidin-1-yl)-2-(4-phenoxy-phenylamino)-nicotinamide], the pIC50 is over 7.00.

For `C=CC(=O)N[C@H]1CCN(c2ccc(C(N)=O)c(Nc3cncc(C)c3)n2)C1` [Compound 55, 6-((S)-3-Acryloylamino-pyrrolidin-1-yl)-2-(5-methyl-pyridin-3-ylamino)-nicotinamide], the negative-log IC50 (pIC50) was over 7.00.

Regarding `C=CC(=O)N[C@@H]1CCCN(c2ccc(C(N)=O)c(Nc3ccc(CCN4CCCC4)cc3)n2)C1` [Compound 56, (R)-3-Acryloylamino-6′-[4-(2-pyrrolidin-1-yl-ethyl)-phenylamino]-3,4,5,6-tetrahydro-2H-[1,2′]bipyridinyl-5′-carboxylic acid amide], the pIC50 was over 7.00.

By pIC50 is commonly meant −log10 of the IC50, conventionally taken in molar units.
